The values below come from PubChem BioAssay (NCI).

SMILES strings stand for the structures. Values joined by “and” are separate entries in the source; they are usually repeats but may differ in a detail not shown here. Identical values can stand only once.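 Assay format: 96-well plates, 48-hour exposure. At the GI50, growth is halved. TGI: concentration producing complete growth inhibition.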

Holding throughout (assay): NCI-60 cell line screen, 48 h
In assay [1] the test system is HT29 colon.
The test system of assay [2] is M14 melanoma.
Assay [3] deals with MDA-MB-231 breast.
The test system of assay [4] is NCI/ADR-RES ovarian.
For assay [5], the system named is OVCAR-3 ovarian.
Assay [6] deals with PC-3 prostate.
Assay [7] relates to RXF 393 renal.
Assay [8] has as its system SK-MEL-5 melanoma.
The test system of assay [9] is SN12C renal.
Assay [10] has as its system UACC-62 melanoma.

In the case of `Cc1ccc(OP(=O)(Oc2ccc(C)cc2)N2C=Cc3ccccc3C2C#N)cc1` (stereo unspecified), the TGI in assay [1], in assay [2], in assay [3], in [4], in assay [5] and in [6] was above 100 µM in each case. The TGI in assay [7], in [8], in [9] and in [10] was above 100 µM each time.

Regarding `COc1nc(N)nc2c1ncn2C1CC(O)C(CO)O1` (stereo unspecified), the TGI in assay [1], in [2], in [3], in assay [4], in assay [5] and in assay [6] was above 100 µM in each case. Moreover, the TGI in assay [7], in assay [8], in assay [9] and in assay [10] was above 100 µM each time.

Consider `Cc1cc(OCc2nnc3n2S(=O)(=O)c2ccccc2N3C)ccc1Cl`, for which the TGI in assay [1] was above 100 µM; in assay [2] it was above 100 µM; in assay [3] it was 41.7 µM; in assay [4], above 100 µM; in [5], 57.2 µM; in [6] it was above 100 µM. The TGI is 60.1 µM in assay [7], above 100 µM in assay [8], above 100 µM in assay [9] and 52.9 µM in assay [10].

Regarding `CCOC(=O)C(=Cc1ccc(C#N)cc1)C(=O)OCC`, the GI50 was 1.93 µM in assay [1]; 1.89 µM in [2]; 2.69 µM in assay [3]; 3.33 µM in [4]; 2.01 µM in assay [5]; 2.28 µM in assay [6]. Also, the GI50 is 1.87 µM in [7], 1.92 µM in [8], 1.81 µM in assay [9] and 1.99 µM in [10]. Also, the TGI in assay [1] is 3.77 µM; in assay [2], 4.26 µM; in assay [3], 6.95 µM; in assay [4], 23.4 µM; in [5], 4.39 µM; in assay [6] it was 4.9 µM. Also, the TGI in [7] worked out at 3.36 µM; in [8] it was 3.67 µM; in assay [9] it was 4.71 µM; in assay [10] it was 4.54 µM.

In the case of `O=C1Nc2c(Cl)cc(Cl)cc2/C1=N/N=C/c1ccco1`, the TGI is above 100 µM in [1]; above 100 µM in [2]; 58 µM in assay [3]; 82.1 µM in assay [4]; 95.1 µM in assay [5]; above 100 µM in assay [6]. The TGI in assay [7] is above 100 µM; in assay [8], above 100 µM; in assay [9] it was 82.1 µM; in [10], 53.6 µM.

For the compound `NC(=O)c1cc(N2CC2)c([N+](=O)[O-])cc1[N+](=O)[O-]`, the GI50 in [1], in assay [2], in [5], in assay [7], in [9] and in [10] was above 200 µM throughout. In addition, the TGI in assay [1], in assay [2], in assay [3], in [4], in assay [5] and in [6] was above 200 µM in each case. Also, the TGI in assay [7], in [8], in [9] and in assay [10] was above 200 µM in each case.

Consider `NC(=S)N/N=C/c1ccc(OC(=O)COc2cc(Cl)c(Cl)cc2Cl)cn1`, for which the GI50 in assay [1] is 17.7 µM; in assay [2], 2.38 µM; in [3], 4.53 µM; in [4], 3.23 µM; in assay [5], 3.39 µM; in assay [6], 4.59 µM. The GI50 in [7] is 3.16 µM; in assay [8] it was 3.42 µM; in assay [9] it was 3.58 µM; in assay [10] it was 3.46 µM. Further, the TGI in [1] is above 100 µM; in [2], 5.75 µM; in assay [3], above 100 µM; in assay [4], above 100 µM; in [5], 58.2 µM; in assay [6], above 100 µM. Besides, the TGI is 21.4 µM in assay [7], 59.6 µM in [8], above 100 µM in assay [9] and 22.4 µM in [10].

As to `Cc1ccc(OCC2CO2)c(Br)c1` (stereo unspecified), the TGI in [1] was 29.1 µM; in assay [2], 95.9 µM; in assay [3], 58 µM; in assay [4] it was 33 µM; in [5] it was 68 µM; in assay [6], above 100 µM. Moreover, the TGI in assay [7] turned out to be 26.5 µM; in [8], 60.5 µM; in assay [9], 45 µM; in assay [10], 37.7 µM.

Regarding `Cn1ncc(Cl)c1-c1cc(C(=O)N[C@H](CN)Cc2cccc(F)c2)sc1Cl`, the GI50 was 0.733 µM and 2.03 µM in [1]; 1.1 µM and 2 µM in assay [2]; 2.25 µM and 2.4 µM in assay [3]; 3.28 µM and 9.52 µM in [4]; 1.18 µM and 2.8 µM in assay [5]; 0.32 µM and 0.554 µM in assay [6]. Also, the GI50 is 0.128 µM and 0.145 µM in [7]; 1.96 µM and 3.64 µM in assay [8]; 1.86 µM and 2.04 µM in assay [9]; 1.07 µM and 1.46 µM in [10]. In addition, the TGI in assay [1] is > 6.18 µM and 13.9 µM; in assay [2] it was 3.14 µM and 6.49 µM; in [3], > 8.32 µM and 8.33 µM; in assay [4], > 7.74 µM and 23.5 µM; in assay [5], > 10 µM and 15.4 µM; in assay [6], > 5.56 µM and 10.2 µM. The TGI was 1.72 µM and 0.896 µM in assay [7]; 3.99 µM and 8.3 µM in assay [8]; > 10 µM and 19.3 µM in assay [9]; > 5.59 µM and 11.6 µM in assay [10].

For the compound `Cc1c(Cn2c(C)nc3c(C(=O)O)cc(N4CCOCC4)cc32)cccc1C(F)(F)F`, the GI50 in assay [1] was 57.3 µM; in [2], 37.1 µM; in [3], above 100 µM; in [4] it was 4.99 µM; in assay [5] it was 52.3 µM; in assay [6] it was 6.38 µM. In addition, the GI50 in assay [7] is 0.719 µM; in assay [8], 47.1 µM; in [9], 41.5 µM; in assay [10], 21.1 µM. Besides, the TGI is above 100 µM in [1]; above 100 µM in assay [2]; above 100 µM in assay [3]; 40.6 µM in assay [4]; above 100 µM in assay [5]; above 100 µM in [6]. The TGI in [7] was above 63.4 µM; in assay [8], above 100 µM; in [9] it was above 100 µM; in [10] it was above 100 µM.
